From patent US10226451B2, “Substituted bicyclic compounds as bromodomain inhibitors” (ZENITH EPIGENETICS LTD, priority 2013, dated 2019) come the findings set out here.

A value given as a limit tells only on which side of the number the result lay.

For test [1], the target named is T1, Brd4 bromodomain 1 (BRD4(1)) (Homo sapiens, UniProt O60885).
T1 construct: made in house; host or cells: E. coli BL21(DE3)
Kind of test: Inhibition of tetra-acetylated histone H4 binding to Brd4 bromodomain 1 (HTRF/FRET). The conditions noted are these: tetra-acetylated histone H4 peptide, His-tagged bromodomain 200 nM, 2 h. The method, then: Proteins were cloned and overexpressed with a N-terminal 6×His tag, then purified by nickel affinity followed by size exclusion chromatography. Briefly, E. coli BL21(DE3) cells were transformed with a recombinant expression vector encoding N-terminally Nickel affinity tagged bromodomains from Brd2, Brd3, Brd4. Cell cultures were incubated at 37° C. with shaking to the appropriate density and induced overnight with IPTG. The supernatant of lysed cells was loaded onto Ni-IDA column for purification. Eluted protein was pooled, concentrated and further purified by size exclusion chromatography. Fractions representing monomeric protein were pooled, concentrated, aliquoted, and frozen at −80° C. for use in subsequent experiments.
Binding of tetra-acetylated histone H4 and BET bromodomains was confirmed by a Homogenous Time Resolved Fluorescence Resonance Energy Transfer (HTRF®) method. N-terminally His-tagged bromodomains (200 nM) and biotinylated tetra-acetylated histone H4 peptide (25-50 nM, Millipore) were incubated in the presence of Europium Cryptate-labeled streptavidin (Cisbio Cat. #610SAKLB) and XL665-labeled monoclonal anti-His antibody (Cisbio Cat. #61HISXLB) in a white 96 well microtiter plate (Greiner). For inhibition assays, serially diluted test compound was added to these reactions in a 0.2% final concentration of DMSO. Duplicate wells were used for each concentration tested. Final buffer concentrations were 30 mM HEPES pH 7.4, 30 mM NaCl, 0.3 mM CHAPS, 20 mM phosphate pH 7.0, 320 mM KF, 0.08% BSA. After a 2 h incubation at room temperature, fluorescence was measured at 665 and 620 nm with a SynergyH4 plate reader (Biotek). The binding inhibitory activity was shown by a decrease in 665 nm relative to 620 nm fluorescence. IC50 values were determined from a dose response curve.
In general terms: Time-resolved FRET reads energy transfer from a long-lived donor to a nearby acceptor.

A further test deals with Human AML MV-4-11 cells. The test can be described thus: Inhibition of cell proliferation in MV4-11 cells (CellTiter Aqueous One). The format is cell-based. The following applies: 72 h. The method, then: In this example, cell titer in MV4-11 cells were quantitated to measure the inhibition of proliferation when treated with a compound of the present disclosure.
MV4-11 cells (CRL-9591) were plated at a density of 5×10^4 cells per well in 96 well flat bottom plates and treated with increasing concentrations of test compound or DMSO (0.1%) in IMDM media containing 10% FBS and penicillin/streptomycin. Triplicate wells were used for each concentration and a well containing only media was used as a control. Plates were incubated at 37° C., 5% CO2 for 72 h before adding 20 μL of the CellTiter Aqueous One Solution (Promega) to each well and incubated at 37° C., 5% CO2 for an additional 3-4 h. The absorbance was read at 490 nm in a spectrophotometer and the percentage of cell titer relative to DMSO-treated cells was calculated after correcting for background by subtracting the blank well's signal. IC50 values were calculated using the Graph Pad Prism software.

A further test deals with hIL-6 mRNA in U937 cells. Kind of test: Inhibition of hIL-6 mRNA transcription in LPS-stimulated U937 cells. The test is classed as cell-based. The conditions noted are these: Homo sapiens, U-937, PMA-differentiated U937 cells, LPS 1 ug/mL, 3 h, read-out: IL-6 activity. The method, then: In this example, hIL-6 mRNA in tissue culture cells were quantitated to measure the transcriptional inhibition of hIL-6 when treated with a compound of the present disclosure.
Human leukemic monocyte lymphoma U937 cells (CRL-1593.2) were plated at a density of 3.2×10^4 cells per well in a 96-well plate in 100 μL RPMI-1640 containing 10% FBS and penicillin/streptomycin, and differentiated into macrophages for 3 days in 60 ng/mL PMA ([…]) at 37° C. in 5% CO2 prior to the addition of compound. The cells were pretreated for 1 h with increasing concentrations of test compound in 0.1% DMSO prior to stimulation with 1 ug/mL lipopolysaccharide from Escherichia coli. Triplicate wells were used for each concentration. The cells were incubated at 37° C., 5% CO2 for 3 h before the cells were harvested. At time of harvest, media was removed and cells were rinsed in 200 μL PBS. Cells were harvested using the mRNA Catcher PLUS kit according to manufacturer's instructions. The eluted mRNA was then used in a one-step quantitative real-time PCR reaction using components of the RNA UltraSense™ One-Step Kit (Life Technologies) together with Applied Biosystems TaqMan® primer-probes for hIL-6 and Cyclophilin. Real-time PCR plates were run on a ViiA™7 real time PCR machine (Applied Biosystems), data was analyzed, normalizing the Ct values for hIL-6 to an internal control, prior to determining the fold expression of each sample, relative to the control.

For test [2], the system named is c-myc in Human AML MV4-11 cells. The test can be described thus: Inhibition of c-MYC expression (mRNA, real-time PCR) in MV4-11 cells. The test is classed as cell-based. The conditions noted are these: 3 h, mRNA by real-time PCR. How it is done: MV4-11 cells (CRL-9591) were plated at a density of 2.5×10^4 cells per well in 96 well U-bottom plates and treated with increasing concentrations of test compound or DMSO (0.1%) in IMDM media containing 10% FBS and penicillin/streptomycin, and incubated for 3 h at 37° C. Triplicate wells were used for each concentration. Cells were pelleted by centrifugation and harvested using the mRNA Catcher PLUS kit according to manufacturer's instructions. The eluted mRNA isolated was then used in a one-step quantitative real-time PCR reaction, using components of the RNA UltraSense™ One-Step Kit (Life Technologies) together with Applied Biosystems TaqMan® primer-probes for cMYC and Cyclophilin. Real-time PCR plates were run on a ViiA™7 real time PCR machine (Applied Biosystems), data was analyzed, normalizing the Ct values for hMYC to an internal control, prior to determining the fold expression of each sample, relative to the control.
In general terms: Quantitative PCR measures a nucleic acid by following its amplification.

As to `Cc1noc(C)c1-c1cc(-c2c(C)nn(C)c2C)c2[nH]c(=S)[nH]c2c1` [Example Compound 23, 6-(3,5-dimethylisoxazol-4-yl)-4-(1,3,5-trimethyl-1H-pyrazol-4-yl)-1H-benzo[d]imidazole-2(3H)-thione], the IC50 (in test [1]; in the test with Human AML MV-4-11 cells; with hIL-6 mRNA in U937 cells; in test [2]) was at most 300 nM in each case.
`Cc1nn(C)c(C)c1Nc1cc(-c2c(C)noc2C)cc2[nH]c(=O)n(C)c12` [Example Compound 26, 5-(3,5-dimethylisoxazol-4-yl)-1-methyl-7-((1,3,5-trimethyl-1H-pyrazol-4-yl)amino)-1H-benzo[d]imidazol-2(3H)-one]: the IC50 in test [1] was at most 300 nM; in the test on Human AML MV-4-11 cells, 300 to 3000 nM; in the test on hIL-6 mRNA in U937 cells, 300 to 3000 nM; in test [2], at most 300 nM.
For `Cc1ncccc1Nc1cc(-c2c(C)noc2C)cc2[nH]c(=O)n(C)c12` [Example Compound 27, 5-(3,5-dimethylisoxazol-4-yl)-1-methyl-7-((2-methylpyridin-3-yl)amino)-1H-benzo[d]imidazol-2(3H)-one], the IC50 in test [1] was at most 300 nM; in the test with Human AML MV-4-11 cells, 300 to 3000 nM; in the test on hIL-6 mRNA in U937 cells, at most 300 nM; in test [2], at most 300 nM.
Take `Cc1ccc(C(N)=O)cc1-c1cc(-c2c(C)noc2C)cc2[nH]c(=O)n(C)c12` [Example Compound 29, 3-(6-(3,5-dimethylisoxazol-4-yl)-3-methyl-2-oxo-2,3-dihydro-1H-benzo[d]imidazol-4-yl)-4-methylbenzamide]: the IC50 was at most 300 nM in test [1], 300 to 3000 nM in the test with Human AML MV-4-11 cells, 300 to 3000 nM in the test on hIL-6 mRNA in U937 cells and at most 300 nM in test [2].
As for `Cc1ncccc1Oc1cc(-c2c(C)noc2C)cc2[nH]c(=O)n(C)c12` [Example Compound 31, 5-(3,5-dimethylisoxazol-4-yl)-1-methyl-7-((2-methylpyridin-3-yl)oxy)-1H-benzo[d]imidazol-2(3H)-one], the IC50 was at most 300 nM in test [1], 300 to 3000 nM in the test with Human AML MV-4-11 cells, at most 300 nM with hIL-6 mRNA in U937 cells and 300 to 3000 nM in test [2].
Consider `Cc1n[nH]c(C)c1-c1cc(-c2c(C)noc2CO)cc2[nH]c(=O)n(C)c12` [Example Compound 32, 7-(3,5-dimethyl-1H-pyrazol-4-yl)-5-(5-(hydroxymethyl)-3-methylisoxazol-4-yl)-1-methyl-1H-benzo[d]imidazol-2(3H)-one], for which the IC50 is at most 300 nM in test [1], 300 to 3000 nM in the test on Human AML MV-4-11 cells, at most 300 nM in the test with hIL-6 mRNA in U937 cells and at most 300 nM in test [2].
As to `Cc1noc(C)c1Nc1cc(-c2c(C)noc2C)cc2[nH]c(=O)n(C)c12` [Example Compound 33, 5-(3,5-dimethylisoxazol-4-yl)-7-((3,5-dimethylisoxazol-4-yl)amino)-1-methyl-1H-benzo[d]imidazol-2(3H)-one], the IC50 in test [1] was at most 300 nM; in the test on Human AML MV-4-11 cells, 300 to 3000 nM; with hIL-6 mRNA in U937 cells, 300 to 3000 nM; in test [2], at most 300 nM.
For the molecule `Cc1noc(C)c1-c1cc(-c2cccc3ccccc23)c2c(c1)[nH]c(=O)n2C` [Example Compound 34, 5-(3,5-dimethylisoxazol-4-yl)-1-methyl-7-(naphthalen-1-yl)-1H-benzo[d]imidazol-2(3H)-one], the IC50 is at most 300 nM in test [1], 300 to 3000 nM in the test on Human AML MV-4-11 cells, at most 300 nM with hIL-6 mRNA in U937 cells and at most 300 nM in test [2].
As to `Cc1cnccc1-c1cc(-c2c(C)noc2C)cc2[nH]c(=O)n(C)c12` [Example Compound 38, 5-(3,5-dimethylisoxazol-4-yl)-1-methyl-7-(3-methylpyridin-4-yl)-1H-benzo[d]imidazol-2(3H)-one], the IC50 is at most 300 nM in test [1], 300 to 3000 nM in the test on Human AML MV-4-11 cells, 300 to 3000 nM in the test on hIL-6 mRNA in U937 cells and 300 to 3000 nM in test [2].
For `Cc1cncc(C)c1-c1cc(-c2c(C)noc2C)cc2[nH]c(=O)n(C)c12` [Example Compound 39, 5-(3,5-dimethylisoxazol-4-yl)-7-(3,5-dimethylpyridin-4-yl)-1-methyl-1H-benzo[d]imidazol-2(3H)-one], the IC50 was at most 300 nM in test [1], 300 to 3000 nM in the test with Human AML MV-4-11 cells, at most 300 nM in the test with hIL-6 mRNA in U937 cells and at most 300 nM in test [2].
As for `Cc1ccccc1-c1cc(-c2c(C)noc2C)cc2[nH]c(=O)n(C)c12` [Example Compound 40, 5-(3,5-dimethylisoxazol-4-yl)-1-methyl-7-(o-tolyl)-1H-benzo[d]imidazol-2(3H)-one], the IC50 is at most 300 nM in test [1], 300 to 3000 nM in the test with Human AML MV-4-11 cells, 300 to 3000 nM in the test with hIL-6 mRNA in U937 cells and at most 300 nM in test [2].
As to `Cc1nc(C)c(-c2cc(-c3c(C)noc3C)cc3[nH]c(=O)n(C)c23)s1` [Example Compound 44, 5-(3,5-dimethylisoxazol-4-yl)-7-(2,4-dimethylthiazol-5-yl)-1-methyl-1H-benzo[d]imidazol-2(3H)-one], the IC50 lay within 300 to 3000 nM in test [1], 3000 to 30000 nM in the test with Human AML MV-4-11 cells, 300 to 3000 nM in the test with hIL-6 mRNA in U937 cells and 300 to 3000 nM in test [2].
On to `COc1nc(C)ccc1-c1cc(-c2c(C)noc2C)cc2[nH]c(=O)n(C)c12` [Example Compound 45, 5-(3,5-dimethylisoxazol-4-yl)-7-(2-methoxy-6-methylpyridin-3-yl)-1-methyl-1H-benzo[d]imidazol-2(3H)-one], for which the IC50 in test [1] was 300 to 3000 nM; with Human AML MV-4-11 cells, 300 to 3000 nM; in the test with hIL-6 mRNA in U937 cells, 300 to 3000 nM; in test [2], at most 300 nM.
